# Reference: publication PMC6014988, “Precision therapeutic targeting of human cancer cell motility” (Nature Communications, 2018)
# Tests used:
# RAF1 = assay: In vitro kinase assay of RAF1, HSP90β and CDC37; assay type: biochemical; conditions: purified recombinant RAF1, HSP90β, CDC37
# Description: MEK4/MKK4/MAP2K4 in vitro kinase assay was performed as described by us[45].
# [1] = Single intravenous dose organ function study; assay type: in vivo; conditions: CD1 mice, single iv 15, 75 or 125 mg/kg, day 8 and 14
# Description: Supplementary Figure 7. KBU2046 treatment is not associated with systemic off-target effects. For histologic examination of tissue, cohorts of N=5 male 6-8 week old Balb/c athymic […]
# KBU2046 as described in manuscript Figure 2a. After 35 days of treatment, the following organs were harvested at necropsy, and stained with H&E (alternative staining methods as indicated): heart, lungs, esophagus, stomach, colon, small intestine, liver (Trichrome staining), kidneys (Trichrome staining), adrenals, bladder, prostate, spleen, pancreas, brain, testes, and bone marrow and peripheral blood (Giemsa staining). Organs were examined for damage using a semi-quantitative histological scoring system, as described 4. […]
# except in the livers of both control and treatment mice. Changes in the liver observed in control mice were not increased by KBU2046 treatment. […]
# gm/mouse, this translated to 5-7 week old females and 4.5-5.5 week old males. […] On day 8 and 14, all critical organs were weighed, and the following parameters measured in blood: cholesterol, triglycerides, alanine aminotransferase (ALT), aspartate aminotransferase (AST), total bilirubin, glucose, phosphorus, total protein, calcium, blood urea nitrogen (BUN), creatinine, albumin, Na, K, Cl, white blood cells (with differential), red blood cells, hemoglobin, […]
# [2] = tested on: human prostate, breast, colon, and lung cancer cells; assay: Single-cell migration assay; assay type: cell-based; conditions: 10 µM, 3 days
# Description: Human prostate metastatic cells (PC3, PC3-M), and HPV-transformed normal (1532NPTX, 1542NPTX) and primary cancer (1532CPTX, 1542CPTX) cells, were treated with 10 µM genistein (G), KBU2046 (46), or vehicle (CO), and after 3 days, cell invasion was measured. Values are mean ± SEM of a single experiment in replicates of N = 4, with similar findings in multiple separate experiments (also N = 4). c Single-cell migration. Cell migration was measured after treatment for 3 days with 10 µM KBU2046 or vehicle (control). Values are mean ± SEM of a single experiment in replicates of N = 24, with similar findings in a separate experiment (also N = 24). *Denotes Student’s t-test P value <0.05, compared to controls. d Human cord blood hematopoietic stem cell colony formation assay. Values are the mean ± SD number of total, CFU-GM, CFU-GEMM, or BFU-E colonies at 14 days after treatment with KBU2046, from a single experiment in replicates of N = 2. e Induction of estrogen-responsive genes. Values are the mean ± SD of a single experiment, with similar results seen in a separate experiment, both in replicates of N = 2 […]
compound,measurement,setting,value
"O=C1c2ccccc2OCC1c1ccc(F)cc1 (racemic) [KBU2046, (±)-3(4-fluorophenyl)chroman-4-one]",phosphorylation of RAF1 Ser338,RAF1,decreased phosphorylation of RAF1’s Ser338 activation motif
same,"organ weights, clinical chemistry and blood parameters",[1],No abnormal alterations
same,cell migration,[2],inhibited the migration
